Where two headings read alike, the source gives them in different places.
What was measured:
[1] = Absorption spectra (absorption maxima) of dyes in organic solvents; assay type: physicochemical
Excerpt: (§1) All commercially available compounds were purchased from Aldrich Chemical Co., GFS Chemicals, Strem Chemicals, Acros Organics, Alfa Aesar, and Advanced Chemtech and used as received, except for p-toluenesulfonyl hydrazide, which was recrystallized from methanol. Amines were purchased from Aldrich Chemical Co. as purified by redistillation and used as received. Tetrahydrofuran (THF), diethyl ether (Et2O), and dichloromethane (CH2Cl2) were purified by passing through alumina using the Sol-Tek ST-002 solvent purification system. Acetonitrile (MeCN) and toluene were freshly distilled from CaH2 prior to use. Benzene was freshly distilled from sodium/benzophenone prior to use Anhydrous N,N-dimethylformamide (DMF), 1,2-dichloroethane (DCE), and 1,4-dioxane were purchased and used as received from Aldrich Chemical Co. Purification of the compounds by flash column chromatography was performed using silica gel (32-63 μm particle size, 60 Å pore size) purchased from Silicycle, or by using a Biotage Horizon flash purification system with either Biotage SNAP KP-SIL silica cartridges, or Teledyne ISCO RediSep Rf normal phase disposable flash columns (40-60 micron). TLC analyses were performed on EMD Chemicals Silica Gel 60 F254 glass plates (250 μm thickness). ^1H NMR and ^13C NMR spectra were recorded on Bruker Avance 300 MHz, 500 MHz, or 600 MHz spectrometers. Spectra were referenced to residual chloroform (7.27 ppm, ^1H, 77.0 ppm, ^13C) or 1,2-dichlorobenzene (6.93 ppm, ^1H, 127.19 ppm, ^13C). Chemical shifts are reported in ppm, multiplicities are indicated by s (singlet), d (doublet), t (triplet), q (quartet), p (pentet), and m (multiplet). Coupling constants, J, are reported in hertz (Hz). All NMR spectra were obtained at room temperature unless otherwise specified. IR spectra were obtained using a Nicolet Avatar E.S.P. 360 FT-IR. EI mass spectroscopy was performed on a Waters Micromass GCT high resolution mass spectrometer. ES mass spectroscopy was performed on a Waters Q-TOF Ultima API, Micromass UK Limited high resolution mass spectrometer. GC mass spectrometry was performed on a Shimadzu GCMS-17A/QP5050A spectrometer. All microwave-mediated reactions were carried out using a Biotage Initiator™ Exp microwave synthesizer. The microwave parameters were set to variable power, constant temperature, with the fixed hold time set to on. The microwave reactions were carried out in 0.2-0.5 mL, 0.5-2 mL, 2-5 mL, or 10-20 mL Biotage microwave vials. […] Absorption and fluorescence spectra were recorded on Lambda 9 spectrophotometer (Perkin Elmer) and FluoroMax-3 spectrofluorometer (Jobin Yvon, Horiba), respectively. Fluorescence quantum yields were determined by taking Prodan in DMSO (quantum yield, QY=91%) as a reference. The quantum yield values were corrected for the solvent refractive index. For spectroscopic measurements, 10^−5 M solutions of dyes in 10 mm quartz-cuvettes were used (excitation wavelength was 334 nm; slits open to 2 nm).

[2] = Prodan in DMSO taken as reference; cited from earlier work
[3] = cited from earlier work
[4] = Fluorescence quantum yield vs Prodan in DMSO as reference; assay type: physicochemical; settings: for QY (fluorescence quantum yield vs Prodan in DMSO (91%)): excitation 334 nm, 10^-5 M
Excerpt: as §1

SMILES: CCC(=O)c1ccc2cc(N(C)C)ccc2c1 [Prodan, reference compound]
- λabs (maximum absorption) ([1]; 1,4-Dioxane): 346 nm
- λabs (maximum absorption) ([1]; Acetonitrile): 350 nm
- λabs (maximum absorption) ([1]; CH2Cl2): 355 nm
- λabs (maximum absorption) ([1]; DMSO): 357 nm
- λabs (maximum absorption) ([1]; EtOH): 362 nm
- λabs (maximum absorption) ([1]; THF): 348 nm
- λabs (maximum absorption) ([1]; Toluene): 346 nm
- λabs (maximum absorption) ([1]; n-Hexane): 340 nm
- quantum yield, QY (reference value) [2]: 91%
- Bathochromic shift ([3]; cyclohexane to water (background)): 124 nm
- fluorescent emission ([3]; in cyclohexane (background)): 410 nm
- fluorescent emission ([3]; in water (background)): 534 nm
- QY (fluorescence quantum yield vs Prodan in DMSO (91%)) ([4]; 1,4-Dioxane): 75%
- QY (fluorescence quantum yield vs Prodan in DMSO (91%)) ([4]; Acetonitrile): 80%
- QY (fluorescence quantum yield vs Prodan in DMSO (91%)) ([4]; CH2Cl2): 98%
- QY (fluorescence quantum yield vs Prodan in DMSO (91%)) ([4]; DMSO): 91%
- QY (fluorescence quantum yield vs Prodan in DMSO (91%)) ([4]; EtOH): 71%
- QY (fluorescence quantum yield vs Prodan in DMSO (91%)) ([4]; THF): 78%
- QY (fluorescence quantum yield vs Prodan in DMSO (91%)) ([4]; Toluene): 56%
- QY (fluorescence quantum yield) ([4]; n-Hexane): 2.0%
